Results as given in PMC3663763, “The novel BH3 α-helix mimetic JY-1-106 induces apoptosis in a subset of cancer cells (lung cancer, colon cancer and mesothelioma) by disrupting Bcl-xL and Mcl-1 protein–protein interactions with Bak” (Molecular Cancer, 2013).

How the values were obtained:
Bcl-xL = biological target: T1, Bcl-xL (Homo sapiens, UniProt Q07817); experiment: co-immunoprecipitation: displacement of Bak from endogenous Bcl-xL in REN cells at […]; type: cell-based
T1 construct: gene BCL2L1; endogenous Bcl-xL
T1 sequence (Q07817 whole entry): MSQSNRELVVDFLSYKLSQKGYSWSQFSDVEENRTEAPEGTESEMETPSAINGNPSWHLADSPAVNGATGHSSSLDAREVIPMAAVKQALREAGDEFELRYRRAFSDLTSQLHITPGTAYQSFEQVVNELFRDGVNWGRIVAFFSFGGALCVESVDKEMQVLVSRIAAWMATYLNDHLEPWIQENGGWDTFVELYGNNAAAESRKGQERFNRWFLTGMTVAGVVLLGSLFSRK
T1 sequence (Q16611 2-211 partner): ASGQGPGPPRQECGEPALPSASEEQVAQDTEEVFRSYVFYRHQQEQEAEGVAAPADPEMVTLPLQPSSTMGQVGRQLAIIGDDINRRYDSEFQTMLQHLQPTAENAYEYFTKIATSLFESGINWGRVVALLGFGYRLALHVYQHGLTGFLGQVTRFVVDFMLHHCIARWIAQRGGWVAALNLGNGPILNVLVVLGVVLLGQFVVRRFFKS

Mcl-1 = biological target: T2, Mcl-1 (Homo sapiens, UniProt Q07820); experiment: fluorescence polarization competition with FITC-Bak-BH3 peptide, […] Mcl-1 (IC50 […]); supported by co-IP in REN cells; type: binding
T2 construct: gene MCL1
T2 sequence (Q07820 whole entry): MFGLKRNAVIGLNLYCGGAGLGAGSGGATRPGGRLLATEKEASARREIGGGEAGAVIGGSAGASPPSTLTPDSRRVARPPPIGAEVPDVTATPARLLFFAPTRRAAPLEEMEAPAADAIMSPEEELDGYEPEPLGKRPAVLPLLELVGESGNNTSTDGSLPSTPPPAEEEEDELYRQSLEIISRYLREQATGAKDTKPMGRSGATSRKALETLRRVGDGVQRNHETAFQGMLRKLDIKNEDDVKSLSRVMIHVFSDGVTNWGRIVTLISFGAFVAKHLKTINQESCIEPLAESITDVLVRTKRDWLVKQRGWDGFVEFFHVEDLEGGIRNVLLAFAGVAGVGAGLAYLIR

CC(C)Oc1cc(C(=O)Nc2ccc(C(=O)Nc3ccc(C(=O)O)cc3OC(C)C)nc2OC(C)C)ccc1N [JY-1-106]
co-immunoprecipitation: displacement of Bak from endogenous Bcl-xL in REN cells (Bcl-xL): JY-1-106 as well as ABT-737 can effectively displace Bak from its inhibitory binding with Bcl-xL
Ki (Mcl-1): 1790 ± 150 nM
